One may read the AC50 as the midpoint of the concentration-response curve, whichever way the signal moves. As usually defined, the IC50 is the midpoint of a concentration-inhibition curve. In general, CC50 refers to the concentration that lowers cell viability or growth by half. The EC50 is the concentration needed to bring the measured effect to its halfway point.

The structures appear in SMILES notation. Active and inactive are the calls of the source.

This note sets out measurements from ChEMBL document CHEMBL1201862, “PubChem BioAssay data set” (2004).

Assay [1] deals with UDP-galactopyranose mutase (Mycobacterium tuberculosis, UniProt P9WIQ1). Briefly: Inhibitors of Mycobacterium tuberculosis UDP-galactopyranose mutase (UGM) enzyme Measured in Biochemical System Using Plate Reader - 2105-02_Inhibitor_Dose_CherryPick_Activity. [Related pubchem assays (depositor defined):AID504439].
Sequence of UDP-galactopyranose mutase (P9WIQ1 whole entry): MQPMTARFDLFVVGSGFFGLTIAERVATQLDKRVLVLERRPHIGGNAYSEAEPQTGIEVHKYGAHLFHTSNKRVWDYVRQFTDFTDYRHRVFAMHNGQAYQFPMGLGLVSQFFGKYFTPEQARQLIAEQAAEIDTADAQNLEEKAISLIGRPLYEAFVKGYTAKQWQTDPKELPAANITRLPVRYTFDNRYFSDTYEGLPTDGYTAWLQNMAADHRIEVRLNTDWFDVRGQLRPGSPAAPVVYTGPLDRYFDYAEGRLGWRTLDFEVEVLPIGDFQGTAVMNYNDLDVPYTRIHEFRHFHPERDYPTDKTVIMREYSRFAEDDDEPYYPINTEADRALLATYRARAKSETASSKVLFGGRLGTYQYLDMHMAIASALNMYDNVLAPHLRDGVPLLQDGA
The target of assay [2] is T1, Histone-lysine N-methyltransferase NSD2 (Homo sapiens, UniProt O96028).
T1 sequence (O96028 whole entry): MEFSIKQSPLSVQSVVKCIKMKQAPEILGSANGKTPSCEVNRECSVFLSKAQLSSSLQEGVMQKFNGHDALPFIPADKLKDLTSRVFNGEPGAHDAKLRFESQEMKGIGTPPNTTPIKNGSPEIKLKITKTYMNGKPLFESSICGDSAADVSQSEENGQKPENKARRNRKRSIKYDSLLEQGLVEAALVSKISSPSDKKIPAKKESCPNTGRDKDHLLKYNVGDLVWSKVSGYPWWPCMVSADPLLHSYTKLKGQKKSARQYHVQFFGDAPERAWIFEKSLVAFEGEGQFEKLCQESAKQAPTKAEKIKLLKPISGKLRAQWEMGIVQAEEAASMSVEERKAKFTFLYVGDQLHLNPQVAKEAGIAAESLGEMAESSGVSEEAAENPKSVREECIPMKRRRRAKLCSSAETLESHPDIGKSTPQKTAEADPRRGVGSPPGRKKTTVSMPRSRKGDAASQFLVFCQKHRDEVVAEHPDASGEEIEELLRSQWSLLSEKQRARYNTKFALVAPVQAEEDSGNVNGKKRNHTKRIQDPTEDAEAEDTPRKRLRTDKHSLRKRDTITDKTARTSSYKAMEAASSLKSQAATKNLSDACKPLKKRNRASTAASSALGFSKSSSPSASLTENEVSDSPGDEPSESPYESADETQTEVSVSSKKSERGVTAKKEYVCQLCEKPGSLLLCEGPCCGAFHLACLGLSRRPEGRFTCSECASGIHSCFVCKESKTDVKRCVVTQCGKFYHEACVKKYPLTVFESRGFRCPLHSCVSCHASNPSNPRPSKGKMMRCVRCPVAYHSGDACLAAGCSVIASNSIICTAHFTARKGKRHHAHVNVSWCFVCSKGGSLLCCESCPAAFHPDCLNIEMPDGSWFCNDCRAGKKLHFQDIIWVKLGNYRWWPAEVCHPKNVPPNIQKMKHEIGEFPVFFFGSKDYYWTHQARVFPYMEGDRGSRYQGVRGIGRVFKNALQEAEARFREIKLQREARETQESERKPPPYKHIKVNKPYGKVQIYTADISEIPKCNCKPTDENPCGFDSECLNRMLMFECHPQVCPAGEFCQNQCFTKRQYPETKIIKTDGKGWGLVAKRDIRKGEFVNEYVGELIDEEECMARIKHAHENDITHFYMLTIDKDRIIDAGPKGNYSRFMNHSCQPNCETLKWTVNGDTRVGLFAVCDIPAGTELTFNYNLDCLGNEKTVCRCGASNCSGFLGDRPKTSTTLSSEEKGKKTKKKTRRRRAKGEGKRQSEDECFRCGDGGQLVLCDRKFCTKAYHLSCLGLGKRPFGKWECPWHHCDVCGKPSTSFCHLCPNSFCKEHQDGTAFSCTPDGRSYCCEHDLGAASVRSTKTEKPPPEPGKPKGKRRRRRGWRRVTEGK
It counts as biochemical.

The test system of a further assay is Jurkat. Nature of the assay: blockers of NF-kB activation in T cells – Jurkat, luciferase reporter, luminescence, B- and T-cell, dose response (AID 489004).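 Also: NF-kB luciferase reporter Jurkat cells stimulated with PMA plus ionomycin.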 The following applies: Homo sapiens. It counts as functional, cell-based. For orientation: Reporter assays use an easily measured gene product as a stand-in for the process of interest.
Assay [3] in a line: HEK-293T viability loss, compound-treated – cell-based, uHTS hits, cytotoxicity control for B/T-cell NF-kB inhibitor project, dose response (AID 489019).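 Also: IC50 reflects cytotoxicity as loss of cell viability.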 It counts as functional.
Assay [4] can be described thus: Luminescence Cell-Based Dose Retest to Confirm Inhibitors of Cancer Stem Cells. [Related pubchem assays (depositor defined):AID2717, AID2721]. It counts as functional. To be noted: Homo sapiens.
Assay [5] is described as follows: viability loss of HMLE_sh_eGFP cells – cell-based, luminescence, counter-screen for HMLE_sh_ECad selective toxicity project, dose response (AID 463074).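 Also: HMLE human mammary epithelial cells expressing control shRNA against eGFP.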 It counts as functional, Homo sapiens. A general note: A counterscreen serves to expose hits that act by an unwanted route or on another target.
Assay [6] in a line: viability of uninfected HEp-2 cells – cell-based, HTS, cytotoxicity control for RSV inhibitor project, dose response (AID 2410). The assay is classed as functional. The following applies: human respiratory syncytial virus.
A short description of assay [7]: decrease of insulin promoter-GFP reporter – imaging, high-content screening, mouse beta cells (AID 1628). It counts as functional. The following applies: MIN6.
Assay [8] can be described thus: MIN6 cell viability loss – mouse insulinoma, cytotoxicity control, dose response (AID 2122).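 Also: confirmatory high-throughput counterscreen run to flag cytotoxic compounds.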 The assay is classed as functional.
In assay [9] the target is Induced myeloid leukemia cell differentiation protein Mcl-1 (Homo sapiens, UniProt Q07820). It counts as functional.
Sequence of Induced myeloid leukemia cell differentiation protein Mcl-1 (Q07820 whole entry): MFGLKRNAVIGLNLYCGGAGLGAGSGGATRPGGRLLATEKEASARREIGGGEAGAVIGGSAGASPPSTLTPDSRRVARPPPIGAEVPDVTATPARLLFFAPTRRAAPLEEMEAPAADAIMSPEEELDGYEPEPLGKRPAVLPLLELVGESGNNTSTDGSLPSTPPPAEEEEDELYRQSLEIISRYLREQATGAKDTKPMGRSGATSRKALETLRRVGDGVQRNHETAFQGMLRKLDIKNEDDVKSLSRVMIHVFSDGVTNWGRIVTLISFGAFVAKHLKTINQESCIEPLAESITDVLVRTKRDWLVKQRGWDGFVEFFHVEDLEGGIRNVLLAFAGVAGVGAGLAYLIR
Assay [10] deals with T2, Endoribonuclease toxin MazF (Escherichia coli K-12, UniProt P0AE70).
T2 sequence (P0AE70 whole entry): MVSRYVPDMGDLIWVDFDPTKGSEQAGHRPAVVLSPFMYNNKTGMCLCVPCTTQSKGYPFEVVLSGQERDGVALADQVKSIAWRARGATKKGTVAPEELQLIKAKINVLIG
Briefly: activation of MazEF endoribonuclease cleavage – biochemical, fluorescence, single-stranded RNA substrate, uHTS hits, dose response (AID 588481). It counts as functional.

Assay [11] deals with T2, Endoribonuclease toxin MazF. Briefly: substrate-only fluorescence increase artefacts – biochemical, single-stranded RNase substrate, counter-screen for MazEF activator project, dose response (AID 588502). It counts as functional.
Assay [12] concerns the target T3, Rac GTPase-activating protein 1 (Homo sapiens, UniProt Q9H0H5).
T3 sequence (Q9H0H5 whole entry): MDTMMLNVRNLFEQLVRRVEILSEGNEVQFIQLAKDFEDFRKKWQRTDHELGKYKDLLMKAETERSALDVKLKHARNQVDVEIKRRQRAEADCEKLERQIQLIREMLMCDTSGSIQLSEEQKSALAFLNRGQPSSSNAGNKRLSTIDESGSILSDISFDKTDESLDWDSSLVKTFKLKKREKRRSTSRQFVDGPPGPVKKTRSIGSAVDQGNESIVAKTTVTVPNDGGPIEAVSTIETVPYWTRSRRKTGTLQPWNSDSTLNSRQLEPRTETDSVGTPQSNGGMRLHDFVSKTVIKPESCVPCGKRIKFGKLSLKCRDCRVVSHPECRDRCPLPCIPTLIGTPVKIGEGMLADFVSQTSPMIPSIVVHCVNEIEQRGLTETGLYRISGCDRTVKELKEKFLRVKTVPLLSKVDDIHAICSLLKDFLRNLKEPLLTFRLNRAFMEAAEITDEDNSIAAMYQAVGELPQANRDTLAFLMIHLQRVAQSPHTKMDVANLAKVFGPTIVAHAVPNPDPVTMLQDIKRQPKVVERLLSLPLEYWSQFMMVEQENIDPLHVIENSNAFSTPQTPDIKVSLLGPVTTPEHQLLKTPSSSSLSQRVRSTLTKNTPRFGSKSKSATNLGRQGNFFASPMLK
Nature of the assay: blockers of MgcRacGAP-driven Rac1 GTP hydrolysis – biochemical, ADP Hunter fluorescence, primary and confirmatory, confirmation (AID 624330). The assay is classed as functional.

In assay [13] the target is Bifunctional protein GlmU (Mycobacterium tuberculosis, UniProt P9WMN3). Nature of the assay: Inhibitors of Mycobacterial Glucosamine-1-phosphate acetyl transferase (GlmU). Secondary screen. Further details: species or system Mycobacterium tuberculosis H37Rv.
Sequence of Bifunctional protein GlmU (P9WMN3 whole entry): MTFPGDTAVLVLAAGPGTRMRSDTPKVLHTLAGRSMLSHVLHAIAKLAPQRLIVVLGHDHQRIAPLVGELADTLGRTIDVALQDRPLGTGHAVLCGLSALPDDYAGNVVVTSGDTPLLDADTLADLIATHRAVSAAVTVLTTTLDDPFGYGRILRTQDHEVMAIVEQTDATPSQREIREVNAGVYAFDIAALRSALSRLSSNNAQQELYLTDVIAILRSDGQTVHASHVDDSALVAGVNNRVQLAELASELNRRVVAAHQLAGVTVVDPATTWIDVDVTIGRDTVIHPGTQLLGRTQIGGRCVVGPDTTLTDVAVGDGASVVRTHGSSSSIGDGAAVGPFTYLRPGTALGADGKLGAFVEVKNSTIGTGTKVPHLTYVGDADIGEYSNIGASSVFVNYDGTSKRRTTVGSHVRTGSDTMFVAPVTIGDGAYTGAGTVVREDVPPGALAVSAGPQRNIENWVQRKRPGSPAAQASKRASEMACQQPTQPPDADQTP
In assay [14] the target is Neurotensin receptor type 1 (Homo sapiens, UniProt P30989). The assay is classed as functional.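 Also: Image-based confirmatory dose-response assay measuring agonist activity at NTR1; NTR1-expressing U2OS osteosarcoma cells imaged for beta-arrestin GFP spot formation; agonist potency where compounds increase beta-arrestin recruitment.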
Sequence of Neurotensin receptor type 1 (P30989 whole entry): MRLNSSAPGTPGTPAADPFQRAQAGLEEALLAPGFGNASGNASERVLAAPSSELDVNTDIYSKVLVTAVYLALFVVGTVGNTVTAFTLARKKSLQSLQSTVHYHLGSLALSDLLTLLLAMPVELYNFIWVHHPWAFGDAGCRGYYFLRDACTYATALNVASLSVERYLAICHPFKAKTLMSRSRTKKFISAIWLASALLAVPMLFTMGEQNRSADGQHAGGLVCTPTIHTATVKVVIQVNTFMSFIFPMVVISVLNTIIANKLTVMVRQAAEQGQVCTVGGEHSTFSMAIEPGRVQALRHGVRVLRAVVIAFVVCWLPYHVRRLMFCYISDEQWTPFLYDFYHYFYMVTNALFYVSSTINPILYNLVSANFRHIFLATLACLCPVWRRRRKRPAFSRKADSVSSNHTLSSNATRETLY
In assay [15] the target is Lysine-specific demethylase 4C (Homo sapiens, UniProt Q9H3R0). Briefly: inhibition of JMJD2C H3K9me3 demethylation – biochemical, DELFIA europium, cherry-picked samples, dose response (AID 488835). The assay is classed as functional.
Sequence of Lysine-specific demethylase 4C (Q9H3R0 whole entry): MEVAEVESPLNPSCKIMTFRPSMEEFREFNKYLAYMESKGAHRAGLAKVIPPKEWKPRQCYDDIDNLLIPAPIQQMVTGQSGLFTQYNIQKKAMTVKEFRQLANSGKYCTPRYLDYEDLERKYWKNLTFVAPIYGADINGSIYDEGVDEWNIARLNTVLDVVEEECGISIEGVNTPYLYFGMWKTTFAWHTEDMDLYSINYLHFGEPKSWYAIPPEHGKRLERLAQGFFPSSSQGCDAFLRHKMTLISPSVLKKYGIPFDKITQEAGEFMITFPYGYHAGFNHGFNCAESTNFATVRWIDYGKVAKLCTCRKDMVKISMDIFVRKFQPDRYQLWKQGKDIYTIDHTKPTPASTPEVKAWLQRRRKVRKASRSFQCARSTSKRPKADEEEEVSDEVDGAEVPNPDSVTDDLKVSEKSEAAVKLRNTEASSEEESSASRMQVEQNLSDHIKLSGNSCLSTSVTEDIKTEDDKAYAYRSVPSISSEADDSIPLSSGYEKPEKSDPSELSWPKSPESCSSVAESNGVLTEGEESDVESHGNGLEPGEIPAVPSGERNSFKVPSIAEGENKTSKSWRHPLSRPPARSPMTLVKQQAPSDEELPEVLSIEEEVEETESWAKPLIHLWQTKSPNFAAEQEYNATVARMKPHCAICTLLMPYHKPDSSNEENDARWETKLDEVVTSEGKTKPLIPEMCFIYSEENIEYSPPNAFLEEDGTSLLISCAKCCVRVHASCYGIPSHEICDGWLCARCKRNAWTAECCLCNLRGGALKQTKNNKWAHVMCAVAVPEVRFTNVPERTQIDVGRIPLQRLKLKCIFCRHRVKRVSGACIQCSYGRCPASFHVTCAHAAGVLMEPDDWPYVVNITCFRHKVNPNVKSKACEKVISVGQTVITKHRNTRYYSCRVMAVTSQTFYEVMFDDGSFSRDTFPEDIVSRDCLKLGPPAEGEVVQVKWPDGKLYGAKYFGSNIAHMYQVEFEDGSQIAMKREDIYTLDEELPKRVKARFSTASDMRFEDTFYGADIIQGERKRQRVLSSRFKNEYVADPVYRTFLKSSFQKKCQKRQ
Another assay deals with Genome polyprotein (dengue virus type 2, UniProt P29990). Briefly: flavivirus cap methylation enzyme inhibition – biochemical, confirmation dose response, primary screen (AID 588689). The assay is classed as functional.
Sequence of Genome polyprotein (P29990 2492-3391 limits assumed): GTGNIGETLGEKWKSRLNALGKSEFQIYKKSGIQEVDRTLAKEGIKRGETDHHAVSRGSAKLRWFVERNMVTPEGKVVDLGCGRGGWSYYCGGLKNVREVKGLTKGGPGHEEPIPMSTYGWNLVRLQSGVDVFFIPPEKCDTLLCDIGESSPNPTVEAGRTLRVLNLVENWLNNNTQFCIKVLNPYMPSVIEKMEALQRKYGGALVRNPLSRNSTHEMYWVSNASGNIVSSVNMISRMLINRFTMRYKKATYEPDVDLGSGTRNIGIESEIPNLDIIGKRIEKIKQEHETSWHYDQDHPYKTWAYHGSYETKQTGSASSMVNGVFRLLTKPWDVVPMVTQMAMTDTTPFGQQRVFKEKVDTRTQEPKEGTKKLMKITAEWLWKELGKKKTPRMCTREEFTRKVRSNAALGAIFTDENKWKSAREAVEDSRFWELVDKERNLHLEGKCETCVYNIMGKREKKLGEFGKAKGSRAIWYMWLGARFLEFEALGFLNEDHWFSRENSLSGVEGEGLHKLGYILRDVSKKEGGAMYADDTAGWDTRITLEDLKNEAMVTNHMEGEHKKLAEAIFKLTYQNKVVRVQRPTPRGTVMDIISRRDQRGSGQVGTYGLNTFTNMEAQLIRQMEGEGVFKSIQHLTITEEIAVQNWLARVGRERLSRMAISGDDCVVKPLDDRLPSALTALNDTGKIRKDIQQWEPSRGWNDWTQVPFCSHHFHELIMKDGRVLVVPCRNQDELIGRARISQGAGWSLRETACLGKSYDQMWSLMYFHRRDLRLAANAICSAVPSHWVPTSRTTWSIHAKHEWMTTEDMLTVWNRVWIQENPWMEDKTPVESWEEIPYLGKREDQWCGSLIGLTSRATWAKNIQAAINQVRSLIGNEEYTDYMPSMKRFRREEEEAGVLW
Assay [16] deals with Streptococcus sp. 'group A'. Briefly: Streptococcus pyogenes SK(-)GAS viability under kanamycin – luminescence, BacTiterGlo, confirmation, counter-screen for streptokinase expression inhibitor project, dose response (AID 1900). It counts as functional, organism-based.
The test system of another assay is Streptococcus. Nature of the assay: GAS UMAA2166 growth inhibition – luminescence, BacTiterGlo, counter-screen for streptokinase expression inhibitor project, dose response (AID 1915).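 Also: potency for reduction of bacterial viability or growth.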 It counts as functional, organism-based.
In assay [17] the test system is HEK293. Briefly: EBV LMP1 TES2 canonical NF-kB signalling blockers – cell-based, HEK293, luciferase, cherry-pick, dose response (AID 588343). It counts as functional. To be noted: Homo sapiens.
Assay [18] concerns Vero. Nature of the assay: cells. The following applies: Chlorocebus sabaeus. It counts as functional, cell-based.
Another assay concerns INS1. Nature of the assay: INS-1E survival protection against cytokine death – cell-based, luminescence, retest, dose response (AID 449756).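 Also: cell death triggered by IL-1 beta plus TNF-alpha plus IFN-gamma mixture; protective hits raise ATP signal compared with cytokine alone wells.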 The assay is classed as functional. The following applies: Rattus norvegicus, INS1.
Assay [19] relates to Vero. Briefly: cells. It counts as functional. The following applies: Chlorocebus sabaeus.
The subject of assay [20] is HEK293. Briefly: cells. The following applies: Homo sapiens.
Assay [21] deals with HEK293. Briefly: cells. To be noted: Homo sapiens. This is another data set of the same source.

Consider `COc1ccc(-n2c(C)ccc2-c2ccccc2)cn1`, for which the AC50 in [1] is 58 µM (active); in [2] it was > 20 µM (inactive).
Regarding `CC(C)(O)c1[nH]c2ccc(C#N)cc2c1C(C)(C)O`, the IC50 (in the assay with Jurkat; in [3]) was > 80 µM (inactive) throughout.
With `CCCOc1ccc(C(=O)N2CCN(c3ccc(N)cc3Cl)CC2)cc1`, the AC50 in assay [4] is 10.1 µM (active); in [5], 47.8 µM (active).
`O=c1oc2ccccc2cc1-c1csc(Nc2ccc(O)cc2)n1`: the CC50 in assay [6] is > 50 µM (active). The IC50 is 2.81 µM (active) in assay [7], 4.07 µM (active) in assay [8], 2.76 µM (active) in assay [9] and 70.1 µM (active) in [12]. Also, the EC50 in [10] and in [11] was > 99 µM (inactive) each time.
Turning to `COc1ccc(N=C(S)N(C)N=C(S)Nc2ccc(OC)cc2)cc1`, the AC50 in assay [4] is 16.3 µM (active); in [5], 22 µM (active).
Turning to `Oc1[nH]c2ccc(Br)cc2c1N=Nc1ccc(F)cc1`, the EC50 in assay [10] is > 99 µM (inactive); in assay [11] it was 45.8 µM (inactive). Also, the AC50 in assay [1] was 91.6 µM (active).
For `O=C1NC(=O)C(=Cc2ccc(Sc3ccccc3)o2)C(=O)N1`, the IC50 in assay [13] is 369 µM (active); on Genome polyprotein it was > 100 µM (active). In addition, the EC50 in assay [14] was 11.2 µM (active). Besides, the AC50 in assay [15] was 10.6 µM (active).
With `COc1ccc(O)c(/C=N/Nc2nc(Nc3ccccc3)nc(-n3nc(C)cc3C)n2)c1`, the IC50 is 1.67 µM (active) in [7], 0.878 µM (active) in assay [8] and > 12.5 µM (active) in the assay with Vero [18]. Further, the EC50 in assay [16] was 1.07 µM (active); in the assay with Streptococcus it was 2.16 µM (active); in the assay with HEK293 [20], > 59.6 µM (inactive); in the assay with HEK293 [21] it was > 59.6 µM (inactive). Moreover, the values for the AC50 (in [4]; in the assay on HEK293 [17]; in the assay on INS1) were 4.75 µM (active), 10.7 µM (active) and 1.01 µM (active), respectively. In the assay with Vero [19], the CC50 is 11.8 µM (active).
